Data published in patent EP0480258A2, “Use of substituted 2-mercapto-nicotinic acid derivatives for combat against endoparasites, novel substituted 2-mercaptonicotinir acid derivatives and processes for their preparation” (BAYER AG, priority 1990, dated 1992).

How the values were obtained:
[1] = test system: Trichostrongylus colubriformis; assay: In vivo nematode test, Trichostrongylus colubriformis / sheep; conditions: experimentally infected sheep (Schaf), treated after the prepatent period, pure active compound in gelatin capsules, oral, dose giving complete cessation of egg excretion in faeces, read-out: Dosis effectiva
Text: Trichostrongylus colubriformis / Schaf
Experimentell mit Trichostrongylus colubriformis infizierte Schafe wurden nach Ablauf der Präpatenzzeit des Parasiten behandelt. Die Wirkstoffe wurden als reiner Wirkstoff in Gelatinekapseln oral appliziert.
Der Wirkungsgrad wird dadurch bestimmt, daß man die mit dem Kot ausgeschiedenen Wurmeier vor und nach der Behandlung quantitativ auszählt.
Ein völliges Sistieren der Eiausscheidung nach der Behandlung bedeutet, daß die Würmer abgetrieben wurden oder so geschädigt sind, daß sie keine Eier mehr produzieren (Dosis effectiva).
Geprüfte Wirkstoffe und wirksame Dosierungen (Dosis effectiva) sind aus der nachfolgenden Tabelle ersichtlich.

[2] = test system: Haemonchus contortus; assay: In vivo nematode test, Haemonchus contortus / sheep; conditions: experimentally infected sheep (Schaf), treated after the prepatent period, pure active compound in gelatin capsules, oral, dose giving complete cessation of egg excretion in faeces, read-out: Dosis effectiva
Text: Haemonchus contortus / Schaf
Experimentell mit Haemonchus contortus infizierte Schafe wurden nach Ablauf der Präpatenzzeit des Parasiten behandelt. Die Wirkstoffe wurden als reiner Wirkstoff in Gelatinekapseln oral appliziert.
Der Wirkungsgrad wird dadurch bestimmt, daß man die mit dem Kot ausgeschiedenen […] vor und nach der Behandlung quantitativ auszählt.
Ein völliges Sistieren der Eiausscheidung nach der Behandlung bedeutet, daß die Würmer abgetrieben wurden oder so geschädigt sind, daß sie keine Eier mehr produzeiren (Dosis effectiva).
Geprüfte Wirkstoffe und wirksame Dosierungen (Dosis effectiva) sind aus der nachfolgenden Tabelle ersichtlich: […]

| SMILES | minimal effective dose [1] [mg/kg] | minimal effective dose [2] [mg/kg] |
| --- | --- | --- |
| CSc1ncccc1C(=O)Nc1ccc(Cl)cc1 [Beispiel 7] | 5 | 10 |
| CSc1ncccc1C(=O)Nc1ccc(Sc2ccc(Cl)cc2)cc1C(F)(F)F [Beispiel 87] | 10 | – |
| CCCSc1ncccc1C(=O)Nc1ccccc1Cl [Beispiel 6] | – | 5 |
| CCSc1ncccc1C(=O)Nc1ccc(Cl)cc1 [Beispiel 13] | 10 | – |
| CCCSc1ncccc1C(=O)Nc1ccc(SC(F)(F)F)cc1 [Beispiel 29] | 10 | 10 |
| C=CCSc1ncccc1C(=O)Nc1ccccc1 [Beispiel 3] | 10 | – |
| CCSc1ncccc1C(=O)Nc1ccccc1 [Beispiel 24] | – | 10 |
| CSc1ncccc1C(=O)Nc1ccccc1 [Beispiel 1] | – | 10 |
| CCCSc1ncccc1C(=O)Nc1ccccc1 [Beispiel 2] | 10 | 10 |
| CCCSc1ncccc1C(=O)Nc1ccc(Cl)cc1 [Beispiel 9] | – | 10 |
